Assay [1] relates to Escherichia coli(δ). As to the kind of experiment: Production by secretion in microbial culture system, cellulase expressing strain (Table 5). The format is cell-based. Also on record: key to Turbidity: (measured turbidity of diluted culture − blank) × dilution rate. The settings on record: for Dried cell density: obtained from turbidity; for Quantitative value of produced recombinant protein: SDS-PAGE. As to the method:
A bglC gene of Bacillus licheniformis was amplified by the PCR method using primers 9 and 10 (Table 4). After being treated with restriction enzymes NcoI and BamHI, a PCR amplified fragment was bound to an NcoI restriction enzyme site and a BamHI restriction enzyme site of a pET-22b plasmid (product of Novagen). Then, the plasmid was transformed into a BL21 (DE3) Escherichia coli strain (product of Novagen) to form Escherichia coli […] that expresses cellulase.
Overnight cultures (1 ml) of Escherichia coli (δ) obtained in Production Example 4 and Escherichia coli (ε) obtained in Production Example 5 were respectively prepared as Comparative Example 2 and Comparative Example 4. An amount of 0.5 ml of each was inoculated in 5 ml of an LB culture solution (containing 100 mg/L of ampicillin) and was shake-cultured at 30° C. for 3 hours. In this manner, pre-culture solutions were prepared. The pre-culture solutions were each inoculated in 50 mL of a culture solution (1.2 g of yeast extract (Nihon Pharmaceutical Co., Ltd.), 0.6 g of polypeptone (Nihon Pharmaceutical Co., Ltd.), 0.47 g of dipotassium phosphate, 0.11 g of monopotassium phosphate, 0.35 g of ammonium sulfate, 0.66 g of disodium phosphate 12-hydrate, 0.02 g of sodium citrate dihydrate, 0.2 g of glycerol, 1.5 g of lactalbumin hydrolysate, 0.3 g of a defoaming agent (Shin-Etsu Chemical Co., Ltd., “KM-70”), 1 mM magnesium sulfate, trace metal solution (18.9 μg of calcium chloride, 500 μg of iron chloride (III), 9.0 μg of zinc sulfate heptahydrate, 5.1 μg of copper sulfate, 6.7 μg of manganese chloride tetrahydrate, 4.9 μg of cobalt chloride, 200 μg of ethylene-diamine-tetraacetic acid tetrasodium salt), 100 mg/L ampicillin). Culturing was initiated with use of a microbial culture system (ABLE Corporation, product name “BioJr. 8”), while the pH value and the temperature were maintained at 6.8 and 30° C. After the culturing was initiated, 0.15 mL of 1M IPTG was added. After 14 hours from the initiation of culturing, instillation of a glycerin/protein solution (50% of glycerin, 50 g/L of lactalbumin hydrolysate, a 33 g/L defoaming agent (Shin-Etsu Chemical Co., Ltd., “KM-70”), 100 mg/L ampicillin) was started. The culturing was terminated after 48 hours from the initiation and the culture solution was recovered. The whole protein in the culture solution was analyzed by SDS-PAGE. Based on the obtained amount of the protein band, the recombinant protein was quantified.
The dried cell density at the termination of the culturing was determined by the following processes (1) to (5):
The dried cell density was determined by applying the measuring results in the process (5) and the process (1) and the volume (L) of the culture solution used in the process (2) to the following formula: Dried cell density (g/L)=([measuring result in process (5)]−[measuring result in process (1)])/0.1.
Performance of this processes for several times clarified the proportional relationship between the turbidity of the culture solution and the dried cell density. Therefore, the dried cell density was obtained from the measured turbidity in each of Comparative Examples 2 to 4 and Examples 2 to 14.
The turbidity of a culture solution that is same as the culture solution used in the measurement of the dried cell density was measured using a turbidimeter (Shimadzu Corporation, UV-1700) and 1 ml of quarts cell.
For measurement, the culture solution was diluted in saline to have an appropriate absorbance. The absorbance of the same culture solution (but not containing bacteria) diluted at the same dilution as above was set as a blank. The turbidity of the culture solution was calculated by using the following formula: Turbidity of culture solution=[(measured turbidity of diluted culture solution)−(measured turbidity of blank)]×dilution rate.
The dried cell density and the turbidity of the culture solution were plotted to construct a graph in FIG. 3. […]

The test system of assay [2] is Escherichia coli(δ). Described as above. The settings on record: SDS-PAGE. Format: cell-based.
Setting [3] is: Comparative Example 3, surfactant 1 wt %, added earlier than in Example 2.
[4] abbreviates: Examples 2-11, surfactant 1 wt %, at termination of culturing.
The mark [5] stands for this setting: Examples 2-11, surfactant 1 wt %, culturing terminated after 48 hours.
[6] abbreviates: Examples 2-11, surfactant 1 wt %, supernatant of culture solution.
Setting [7] is: Example 13, surfactant 0.1 wt %.

Turning to `CCCCCCCCCCCCCCCC[N+](C)(C)C.[Cl-]` [A-14, Cetyl trimethyl ammonium chloride], the Turbidity was 1.07 in assay [1] (setting [3]) and 5.43 in assay [1] (setting [5]). The “Dried cell density” value worked out at 0.3 g/L in assay [1] (setting [3]) and 1.52 g/L in assay [1] (setting [4]). Also, the “Quantitative value of produced recombinant protein” value (“Quantitative value” below) was less than 0.05 g/L in assay [1] (Comparative Example 3, surfactant 1 wt %, added earlier than in Example 2, whole protein in culture solution) and 0.06 g/L in assay [1] (setting [6]).

Turning to “Cured palm oil fatty acid amidopropyl dimethyl aminoacetate betaine [A-6]”, the Turbidity in assay [1] (setting [7]) came to 75.2; in assay [1] (Example 14, surfactant 5 wt %), 52.1; in assay [1] (setting [5]) it was 70.3. In addition, the “Dried cell density” value is given as 21.1 g/L in assay [1] (setting [7]); 14.6 g/L in assay [1] (Example 14, surfactant 5 wt %); 19.7 g/L in assay [1] (setting [4]). Also, the “Quantitative value” value in assay [2] (Example 13, surfactant 0.1 wt %, supernatant) is recorded as 1.82 g/L; in assay [2] (Example 14, surfactant 5 wt %, supernatant), 1.53 g/L; in assay [2] (setting [6]), 2.35 g/L.

As to “Polyoxyethylene(3 mol)tridecyl ether sodium acetate [A-1]”, the “Dried cell density” value in assay [1] (setting [4]) worked out at 12.1 g/L. The same compound gave a Turbidity in assay [1] (setting [5]) of 43.2. The “Quantitative value” value in assay [2] (setting [6]) came out at 1.01 g/L.

In the case of Sodium cocaminopropionate [A-7], the “Dried cell density” value in assay [1] (setting [4]) is on record as 22.1 g/L. Further, the Turbidity in assay [1] (setting [5]) is reported as 78.9. The “Quantitative value” value in assay [2] (setting [6]) is 2.24 g/L.

The values above are taken from US9328369B2, “Process for production of useful substance, and surfactant for use in the process” (priority 2009, dated 2016).
